In article PMC3574584 (Journal of medicinal chemistry, 2013):
“Also recorded” adds a separate entry of the source.

Test system: Raw264.7 cells expressing mPTPB
Test: Akt phosphorylation by Western blotting
Type: cell-based, mouse
Settings: mPTPB expressing Raw264.7 macrophages, IFN-γ 200 U/ml; 6c at 240 nM

Row | SMILES | Akt activity (phospho-Akt)
1 | O=C(O)c1cc2c(C#Cc3cccc(C(F)(F)F)c3)c(-c3ccccc3)oc2cc1O [Compound 4g, 6-hydroxy-2-phenyl-3-((3-(trifluoromethyl)phenyl)ethynyl)benzofuran-5-carboxylic acid] | normalized; also recorded: blocks
2 | O=C(O)c1cc2c(CCc3ccc(OC(F)(F)F)cc3)c(-c3ccccc3)oc2cc1O [Compound 6c, 6-hydroxy-2-phenyl-3-(4-(trifluoromethoxy)phenethyl)benzofuran-5-carboxylic acid] | unable to reverse
